The source of these data is PMC8387043, “Host Poly(A) Polymerases PAPD5 and PAPD7 Provide Two Layers of Protection That Ensure the Integrity and Stability of Hepatitis B Virus RNA” (Journal of Virology, 2021).

Where two headings read alike, the source gives them in different places. Bounds are passed on as bounds.

The term IC50 denotes the concentration needed to halve the response being measured. One may read the EC50 as the concentration at which the effect is half-maximal.

In one test the target is T1, recombinant human PAPD7 (Homo sapiens, UniProt Q5XG87).
T1 construct: PAPD7 (amino acids 226 to 558; NM_006999.6); 10xHis (N); Flag (N); TEV cleavage site (N); host or cells: E. coli BL21(DE3), vector pET-24a(+)
As to the kind of experiment: PAPD7 ATP depletion assay. Type of test: biochemical. On the procedure: (§1) Molecular cloning, expression, and purification of the recombinant human PAPD5 and PAPD7 proteins were performed at Xtal BioStructures (MA, USA). PAPD5 (amino acids 186 to 518; GenBank accession no. XM_011523275) and PAPD7 (amino acids 226 to 558; GenBank accession no. NM_006999.6) genes comprising of nucleotidyltransferase and PAP-associated domains were codon optimized, synthesized, and inserted in the expression vector pET-24a(+) for E. coli expression with 10×His-Flag-tobacco etch virus (TEV) tags at the N terminus. The pET-24a(+) constructs were transformed into E. coli-competent cells BL21(DE3). […] Expression of protein was induced for 16 h with 0.2 mM IPTG (isopropyl-β-D-thiogalactopyranoside) at 18°C. […] Roche). Cell suspension was sonicated 8 × 20 s at 27 to 30 W (power level, 3.5 to 4.0) with 40-s breaks between each pulse. Lysate was cleared by centrifugation in a 50-ml conical tube at 20,000 × g for 30 min (Fiberlite F13-14 × 50cy rotor in a Sorvall RC6 centrifuge). Supernatant was incubated with Ni-charged MagBeads (GenScript; catalog no. […] Bound proteins were washed with 50 ml binding buffer and eluted in elution buffer containing a gradient of imidazole ranging from 5 to 500 mM. Peak fractions were pooled and stored in 50% glycerol at -80°C. Reactions were carried out in duplicate in 96-well low-profile, skirted, white plates (catalog no. AB0800WL; […] The reaction mixtures were incubated at room temperature for 3 h, and ATP depletion was monitored by using Kinase-Glo luminescent kinase kit following the manufacturer's instructions (catalog no. V6712; Promega, WI, USA).

The target in another test is T2, recombinant human PAPD5 (Homo sapiens, UniProt Q8NDF8).
T2 construct: PAPD5 (amino acids 186 to 518; XM_011523275); 10xHis (N); Flag (N); TEV cleavage site (N); host or cells: E. coli BL21(DE3), vector pET-24a(+)
Nature of the test: PAPD5 ATP depletion assay. Format: biochemical. The following applies: truncated recombinant human PAPD5, ATP depletion. The procedure:
as §1

A further test has as its system PAPD5. The arrangement: method as in PMID 31801065. Particulars: read-out: PAPD5 IC50 previously reported; cited from earlier work.
For a further test, the system named is HBsAg. As to the kind of experiment: HBsAg inhibition in adenovirus-HBsAg-transduced HepG2-NTCP WT and KO clones. Type of test: cell-based, hepatitis B virus. Particulars: for EC50: HBsAg, read-out: Adeno infection EC50.
Test [1] has as its system HBV. As to the kind of experiment: HBV replication intermediates and viral proteins in HepG2.2.15 cells (Northern, Western, particle gel, Southern). Type of test: cell-based, hepatitis B virus. Particulars: HepG2.2.15, 6 days; ETV, GLS-4, cmpdA 1 μM; AB-452 70 nM. The procedure:
Total cellular RNA was extracted from HepG2.2.15 or HepAD38 cells treated with or without antiviral compounds using TRIzol reagent according to the manufacturer's directions (Thermo Fisher Scientific, Waltham, MA). Northern blotting was performed as described previously ([1]). Briefly, total RNA was separated in a 1.5% agarose gel and transferred onto an Amersham Hybond-XL membrane (product no. GERPN303S; GE Healthcare, IL, USA). Membranes were probed with an [α-^32P]UTP (PerkinElmer, CT, USA)-labeled minus strand-specific full-length HBV riboprobe (3.2 kb) transcribed from plasmid pSP65_HBV(+) DNA. Membranes were exposed to a phosphoimager screen, and the hybridization signals were quantified using Image Studio software (Li-Cor Biosciences, NE, USA).
Total intracellular viral core-associated DNA was extracted as described previously ([1]) and analyzed by Southern blotting hybridization with an [α-^32P]UTP-labeled full-length HBV riboprobe (3.2 kb) that specifically hybridized to minus strand of viral DNA. Membranes were exposed to a phosphoimager screen, and the hybridization signals were quantified using Image Studio software.
HepG2.2.15 or HepAD38 cells cultured in a 12-well plate were lysed with 200 μl Laemmli sample buffer (Bio-Rad, PA, USA) supplemented with 2.5% 2-mercaptoethanol (Sigma-Aldrich, MO, USA). […]

Test [2] relates to HBV. Nature of the test: Antiviral assay in HepG2.2.15 cells (HBsAg/HBeAg CLIA, secreted HBV DNA qPCR). Format: cell-based, hepatitis B virus. On the technique in general: Quantitative PCR measures a nucleic acid by following its amplification.
The next test deals with HBV PRE. As to the kind of experiment: HBV PRE cis-element reporter plasmids (HBsAg or Gluc) transfected in Huh-7 cells. Particulars: Hepatitis B virus.
For test [3], the system named is HBV. As to the kind of experiment: HBsAg inhibition in PLC/PRF/5 cells. The following applies: Hepatitis B virus. Type of test: cell-based. The procedure:
AB-452 and RG7834 both belong to the dihydroquinolizinones chemical class. The antiviral activities of AB-452 and its diastereomer ARB-169451 were evaluated using multiple in vitro HBV replication models, including HepG2.2.15 cells (which constitutively express HBV through the integrated viral genome), PLC/PRF/5 cells (a patient-derived hepatocellular carcinoma cell line only expressing HBsAg), and HBV-infected HepG2-NTCP cells or primary human hepatocytes (PHHs) in which viral replication was dependent on cccDNA transcription (Table 1).
HepG2.2.15, HepAD38, and PLC/PRF/5 cells were cultured in Dulbecco’s modified Eagle medium (DMEM)/F12 medium (Corning, NY, USA), supplemented with 10% fetal bovine serum (Gemini, CA, USA), 100 U/ml penicillin, and 100 μg/ml streptomycin. Huh-7 cells (Creative Bioarray, NY, USA) were cultured in RPMI 1640 medium (Basel, Switzerland) containing 10% fetal bovine serum, 100 U/ml penicillin, and 100 μg/ml streptomycin. HepG2-hNTCP-C4 cells were cultured in DMEM medium (Gibco, MA, USA) containing 10% fetal bovine serum and 10 mM HEPES (Gibco).

T2 sequence (Q8NDF8 106-438 limits assumed): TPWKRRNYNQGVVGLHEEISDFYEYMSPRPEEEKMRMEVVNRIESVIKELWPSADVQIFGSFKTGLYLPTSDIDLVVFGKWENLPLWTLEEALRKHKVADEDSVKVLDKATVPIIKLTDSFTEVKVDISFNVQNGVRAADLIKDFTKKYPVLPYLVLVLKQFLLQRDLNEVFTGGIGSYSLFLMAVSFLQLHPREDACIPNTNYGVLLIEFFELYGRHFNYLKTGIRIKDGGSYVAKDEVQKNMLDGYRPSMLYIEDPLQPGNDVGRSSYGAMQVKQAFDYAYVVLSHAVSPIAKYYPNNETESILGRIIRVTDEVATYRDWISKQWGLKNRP
T1 sequence (Q5XG87 226-558): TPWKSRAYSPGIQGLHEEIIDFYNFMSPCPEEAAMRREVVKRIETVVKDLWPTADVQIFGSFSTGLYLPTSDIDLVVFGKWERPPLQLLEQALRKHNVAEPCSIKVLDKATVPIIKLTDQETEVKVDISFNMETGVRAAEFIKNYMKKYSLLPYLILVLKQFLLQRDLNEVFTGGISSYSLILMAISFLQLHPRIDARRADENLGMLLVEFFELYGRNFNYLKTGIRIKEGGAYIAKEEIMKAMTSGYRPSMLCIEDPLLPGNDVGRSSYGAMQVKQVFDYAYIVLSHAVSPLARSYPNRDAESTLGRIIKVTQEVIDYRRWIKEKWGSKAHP

For the compound `COCCCOc1cc2c(cc1OC)-c1cc(=O)c(C(=O)O)cn1[C@H](C(C)C)C2` [RG7834, reference compound], the IC50 on recombinant human PAPD7 was 1090 nM; at recombinant human PAPD5 it was 0.167 µM; in the test with PAPD5, 1.3 nM. The “Adeno infection FC vs WT” value with HBsAg (P5_KO (T3-4)) came out at 10.7; in the test on HBsAg (P5_KO (T3-15)) it was 7.3; in the test with HBsAg (P7_KO (T2-8)), 2.0; in the test with HBsAg (P7_KO (T2-22)) it was 0.9; in the test with HBsAg (WT (parent)), 1. Further, the EC50 with HBsAg (P5_KO (T3-4)) came out at 126 ± 74.7 nM; in the test on HBsAg (P5_KO (T3-15)), 85.7 ± 59.8 nM; in the test on HBsAg (P7_KO (T2-8)), 23.7 ± 15.2 nM; in the test on HBsAg (P7_KO (T2-22)), 10.8 ± 2.1 nM; with HBsAg (WT (parent) HepG2-NTCP), 11.8 ± 9.6 nM.
`C=C1[C@H](CO)[C@@H](O)C[C@@H]1n1cnc2c(=O)[nH]c(N)nc21` [ETV, entecavir, reference compound]: in the test on HBV [1], the “Effect on HBV replication intermediates and viral proteins” value is listed as “strongly inhibited HBV DNA replication but did not reduce the production of intracellular HBV RNA, core protein levels, or capsid assembly”.
In the case of `COCCCOc1cc2c(nc1OC)-c1cc(=O)c(C(=O)O)cn1[C@@H](C(C)C)C2` [ARB-169451], the IC50 is more than 50000 nM at recombinant human PAPD7 and 27 µM at recombinant human PAPD5. For the same compound, in the test on HBV [2], the “fold weaker toward HBsAg inhibition than AB-452” value is given as “more than 1,000 fold”. Also, the concentration giving a half-maximal response (EC50) in the test with HBV [2] (Hepatitis B virus, HepG2.2.15 cells, read-out: HBsAg EC50) was 2230 nM; in the test on HBV PRE (120 h, read-out: EC50, Gluc_dHBx (Gluc activity)), more than 100 nM; with HBV PRE (120 h, read-out: EC50, H133_Gluc (Gluc activity)), more than 100 nM; in the test with HBV PRE (Huh-7, 120 h, read-out: EC50, Gluc_rcSLα (Gluc activity)), more than 100 nM; in the test on HBV PRE (Huh-7, 120 h, read-out: EC50, H133 (HBsAg)), more than 100 nM; with HBV PRE (Huh-7, 120 h, read-out: EC50, H133_dLa (HBsAg)), more than 100 nM. Besides, the EC50 was more than 100 nM in the test with HBV PRE (Huh-7, 120 h, read-out: EC50, H133_dSLα (HBsAg)) and more than 100 nM in the test with HBV [3].
